The target of one assay is T1, 5-HT3A receptor S163T (Homo sapiens, UniProt P46098, S158T).
T1 sequence (P46098 24-478 S158T): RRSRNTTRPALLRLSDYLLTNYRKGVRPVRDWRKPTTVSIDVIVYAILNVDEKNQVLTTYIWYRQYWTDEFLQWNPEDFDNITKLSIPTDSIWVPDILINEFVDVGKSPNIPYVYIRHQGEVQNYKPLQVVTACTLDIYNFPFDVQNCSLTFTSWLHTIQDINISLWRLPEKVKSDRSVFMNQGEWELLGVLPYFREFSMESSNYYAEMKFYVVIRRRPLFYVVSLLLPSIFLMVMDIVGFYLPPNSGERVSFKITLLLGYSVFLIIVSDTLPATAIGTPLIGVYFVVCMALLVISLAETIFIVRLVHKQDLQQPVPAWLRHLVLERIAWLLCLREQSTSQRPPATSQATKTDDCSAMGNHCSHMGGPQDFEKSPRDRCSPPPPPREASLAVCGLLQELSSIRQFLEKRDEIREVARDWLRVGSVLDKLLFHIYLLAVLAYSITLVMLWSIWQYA
The assay is described as follows: FlexStation membrane potential dye functional assay, HEK293 cells. It is filed as cell-based. Further details: expressed in transfected cells; host or cells: HEK293. The conditions noted are these: inhibition of 5-HT (EC50 concentration) response, 45 min preincubation, 5-HT3A S163T.

The next assay concerns the target T2, 5-HT3A receptor Y73A (Homo sapiens, UniProt P46098, Y68A).
T2 sequence (P46098 24-478 Y68A): T1 sequence (P46098 24-478 S158T) with Y45A, T135S
The assay is described as above. Conditions: inhibition of 5-HT (EC50 concentration) response, 45 min preincubation, 5-HT3A Y73A. Also noted: expressed in transfected cells; host or cells: HEK293. In kind it is cell-based.

The next assay has as its target T3, WT 5-HT3AB receptor (Homo sapiens, UniProt O95264+P46098).
T3 sequence (P46098 24-478): T1 sequence (P46098 24-478 S158T) with T135S
T3 sequence (O95264 22-441): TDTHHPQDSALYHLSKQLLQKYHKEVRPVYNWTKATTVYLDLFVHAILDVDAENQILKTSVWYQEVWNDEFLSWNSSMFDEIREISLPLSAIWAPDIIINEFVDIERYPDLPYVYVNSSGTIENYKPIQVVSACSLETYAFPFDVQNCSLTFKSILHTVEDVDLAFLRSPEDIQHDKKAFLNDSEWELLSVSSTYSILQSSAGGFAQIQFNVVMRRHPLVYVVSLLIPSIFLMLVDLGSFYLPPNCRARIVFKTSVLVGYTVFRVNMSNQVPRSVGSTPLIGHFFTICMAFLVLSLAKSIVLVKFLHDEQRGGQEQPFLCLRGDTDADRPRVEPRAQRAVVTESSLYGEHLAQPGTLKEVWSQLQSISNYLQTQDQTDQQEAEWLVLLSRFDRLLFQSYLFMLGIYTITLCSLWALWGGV
The assay is described as follows: radioligand saturation binding, transfected HEK293 membranes. Conditions: [3H]-palonosetron saturation, 4 °C, 24 h.

A further assay deals with T4, 5-HT3A receptor D165A (Homo sapiens, UniProt P46098, D160A).
T4 sequence (P46098 24-478 D160A): T1 sequence (P46098 24-478 S158T) with T135S, D137A
The assay is described as above. Conditions: [3H]-palonosetron saturation, 5-HT3A D165A, 4 °C, 24 h.

By IC50 is commonly meant the midpoint of a concentration-inhibition curve. Read a low IC50 as inhibition by little substance. One may read the Kd as a measure of binding affinity in units of concentration.

Where a chain is given by its changes, count along the chain named.

Protocol for 5-HT3A receptor D165A: (§1) Human embryonic kidney (HEK) 293 cells were cultured on 90 mm tissue culture plates at 37 °C and 7% CO2 in a humidified atmosphere. They were grown in DMEM:F12 (Dulbecco’s Modified Eagle’s Medium/Nutrient Mix F12 (1:1)) with GlutaMAX I™ containing 10% fetal calf serum and passaged when confluent. For radioligand binding studies, cells in 90 mm dishes were transfected at 60–70% confluency using polyethyleneimine and incubated for 3–4 days before use. For FlexStation assays, transfected cells were plated on 96-well plates and incubated 1–2 days before assay. […]
(§2) Eight-point binding assays were performed to produce saturation binding curves. […] Radioactive counts were measured using a Beckman LS6000SC liquid scintillation counter (Fullerton, California, USA).
(§3) Data were analyzed by iterative curve fitting using GraphPad Prism v5 (San Diego, CA) according to the following equation: B=Bmax[L]^n/kdn+[L]^n where B is the amount of bound radioligand, Bmax is the maximum specific binding at equilibrium, [L] is the concentration of radioligand, Kd is the equilibrium dissociation constant of the radioligand, and n is the Hill coefficient.
Protocol for 5-HT3A receptor S163T: (§4) For FlexStation assays, transfected cells were plated on 96-well plates and incubated 1–2 days before assay.
(§5) Fluorometric studies were undertaken using a FlexStation® (Molecular Devices, Sunnyvale, CA, USA) as previously described.[11]
(§6) Fluorescence was measured every 2 s for 200 s. […] Concentration–response and inhibition curves were obtained for each mutant, and the fluorescence values were normalized to the maximal response.
Protocol for 5-HT3A receptor Y73A: as §4, §5, §6
Protocol for WT 5-HT3AB receptor: as §1, §2, §3

Consider `O=C1c2cccc3c2[C@H](CCC3)CN1[C@@H]1CN2CCC1CC2` [Palonosetron], for which the IC50 on 5-HT3A receptor S163T is 1.02 ± 0.19 nM; against 5-HT3A receptor Y73A, 13.1 ± 1.6 nM. In addition, the equilibrium dissociation constant (Kd) was 0.18 ± 0.02 nM at WT 5-HT3AB receptor and 0.3 ± 0.08 nM at 5-HT3A receptor D165A.

The values above are taken from publication PMC3898987 (Bioorganic & Medicinal Chemistry, 2013).
